Results on 1 compound are retold here after patent publication US20090253634A1, “Methods and Compositions for the Treatment of Gastrointestinal Disorders” (MICROBIA, INC., priority 2005, published 2009).

Bridge positions count the residues as written; N and C are the ends. Peptide text beside a SMILES is read from it.

The test system of assay [1] is gastrointestinal transit. The assay can be described thus: rat gastrointestinal transit (GIT) assay. It is filed as in vivo, CD rats. On the procedure:
In order to determine whether the peptides increase the rate of gastrointestinal transit, the peptides and controls were tested using a murine gastrointestinal transit (GIT) assay (Moon et al. Infection and Immunity 25:127, 1979). In this assay, charcoal, which can be readily visualized in the gastrointestinal tract is administered to mice after the administration of a test compound. The distance traveled by the charcoal is measured and expressed as a percentage of the total length of the […].
Mice were fasted with free access to water for 12 to 16 hours before the treatment with peptide or control buffer. The peptides were orally administered at 1 μg/kg-1 mg/kg of peptide in buffer ([…] pH 7.5) 7 minutes before being given an oral dose of 5% Activated Carbon (Aldrich 242276-250G). Control mice were administered buffer only before being given a dose of Activated Carbon. After 15 minutes, the mice were sacrificed and their intestines from the stomach to the cecum were dissected. The total length of the intestine as well as the distance traveled from the stomach to the charcoal front was measured for each animal and the results are expressed as the percent of the total length of the intestine traveled by the charcoal front. All results are reported as the average of 10 mice±standard deviation. […] P-values are calculated using a two-sided T-Test assuming unequal variances. […]

The subject of assay [2] is intestinal transit after abdominal surgery. In words: rat model of postoperative ileus. The class given is in vivo, CD rats. To be noted: oral 10 μg/kg, 20 minutes after charcoal meal. The method, then:
Female CD rats were used to test the effect of SEQ ID NO:3 on delayed transit induced by abdominal surgery and manual manipulation of the small intestine. Groups of at least nine rats underwent abdominal surgery under isoflurane anesthesia. Surgery consisted of laparotomy and 5 minutes of gentle manual intestinal massage. Following recovery from anesthesia, rats were dosed orally with either 10 μg/kg SEQ ID NO:3 or vehicle (20 mM Tris) in a volume of 300 μl. 1 hour after dosing, intestinal transit rate was measured. Animals were again dosed with 300 μl of the test article followed immediately by 500 μl of a charcoal meal (10% charcoal, 10% gum arabic in water). To calculate the distance of the small intestine traveled by the charcoal front, after 20 minutes, the total length of the intestine as well as the distance traveled from the stomach to the charcoal front were measured for each animal. Animals dosed with 10 μg/kg SEQ ID NO:3 experienced an increase in transit following abdominal surgery compared to animals dosed with vehicle alone (FIG. 16). Charcoal transit in SEQ ID NO:3 dosed animals was measured at 37.3+3.0% (mean±SEM) of the small intestine compared with vehicle at 24.7+1.4% (mean±SEM) of the small intestine.

As to `C[C@@H]1NC(=O)[C@@H]2CCCN2C(=O)[C@H](CC(N)=O)NC(=O)[C@@H]2CSSC[C@H](N)C(=O)N[C@H]3CSSC[C@H](NC1=O)C(=O)N[C@@H]([C@@H](C)O)C(=O)NCC(=O)N[C@H](C(=O)N[C@@H](Cc1ccc(O)cc1)C(=O)O)CSSC[C@H](NC(=O)[C@H](Cc1ccc(O)cc1)NC(=O)[C@H](CCC(=O)O)NC3=O)C(=O)N2` [SEQ ID NO:3] (H-CCEYCCNPACTGCY-OH; disulfide 1-6, 2-10, 5-13; N-terminus and C-terminus assumed), in assay [1] (female rats, similar effects in male rats, FIG. 4e), the “intestinal transit, dose dependence” value is recorded as “increases in a dose dependent manner”. Also, the intestinal transit result in assay [1] (rat GIT assay, FIG. 4d) is “intestinal transit increases”. For the same compound, in assay [2], the “Charcoal transit, of the small intestine (mean±SEM)” value is on record as 37.3 ± 3.0%.
